Reference: patent publication US7407968B2, “Compounds” (AstraZeneca AB, priority 2003, dated 2008)
Like-named read-outs stand apart in the source and are kept apart here.

Experiments:
[1] = molecular target: T1, human CB2 receptor from BioSignal (hCB2) (Homo sapiens, UniProt P34972); assay: hCB2 receptor binding (3H-CP55,940 displacement)
T1 construct: purchased BioSignal

[2] = molecular target: Human CB1 receptor from Receptor Biology (hCB1) (Homo sapiens, UniProt P21554); assay: hCB1 receptor binding (3H-CP55,940 displacement)
[3] = hCB1 membranes, 3H-CP55,940 radioligand, Ki=IC50/(1+[rad]/Kd), read-out: hCB1 Ki

Human CB1 receptor from Receptor Biology (hCB1), sequence (P21554 whole entry): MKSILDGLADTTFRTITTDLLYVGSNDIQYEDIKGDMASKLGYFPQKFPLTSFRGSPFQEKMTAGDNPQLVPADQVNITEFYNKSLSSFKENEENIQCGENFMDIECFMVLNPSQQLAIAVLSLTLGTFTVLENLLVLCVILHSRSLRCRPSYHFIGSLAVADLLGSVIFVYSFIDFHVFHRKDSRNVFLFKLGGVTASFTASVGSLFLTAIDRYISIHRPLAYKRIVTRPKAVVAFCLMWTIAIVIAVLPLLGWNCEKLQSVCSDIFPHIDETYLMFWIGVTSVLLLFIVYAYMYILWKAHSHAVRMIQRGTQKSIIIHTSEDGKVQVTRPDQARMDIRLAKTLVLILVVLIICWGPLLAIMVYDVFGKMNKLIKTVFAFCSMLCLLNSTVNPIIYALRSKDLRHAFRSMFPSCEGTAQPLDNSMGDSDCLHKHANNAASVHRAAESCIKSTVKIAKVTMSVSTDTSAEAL
T1 sequence (P34972 whole entry): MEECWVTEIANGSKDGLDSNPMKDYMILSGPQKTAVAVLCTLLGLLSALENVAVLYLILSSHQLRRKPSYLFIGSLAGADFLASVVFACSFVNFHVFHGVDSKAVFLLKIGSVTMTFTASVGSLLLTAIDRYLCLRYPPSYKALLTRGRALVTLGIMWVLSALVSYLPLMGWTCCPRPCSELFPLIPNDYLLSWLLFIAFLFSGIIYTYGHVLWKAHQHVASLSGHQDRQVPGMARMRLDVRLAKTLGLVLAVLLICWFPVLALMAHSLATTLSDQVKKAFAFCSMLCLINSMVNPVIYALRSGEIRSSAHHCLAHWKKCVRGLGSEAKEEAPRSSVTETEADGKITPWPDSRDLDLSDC

Compound | Ki ([1]; hCB2 Ki (nM)) | Ki [2, 3] | Ki ([1]; read-out: hCB2 Ki) | Ki ([2]; hCB1 Ki (nM)) | Ki ([1]; hCB2 membranes, 3H-CP55,940 radioligand, Ki=IC50/(1+[rad]/Kd), read-out: hCB2 Ki)
CCOc1ccc(Cc2nc3cc(C(=O)N(CC(F)(F)F)CC(F)(F)F)ccc3n2CCC(C)C)cc1 [Compound 1] | 3.1 nM | 2800 nM |  |  | 
CCOc1ccc(Cc2nc3cc(C(=O)N(CC(F)(F)F)CC(F)(F)F)ccc3n2CC2CC2)cc1 [Compound 2] |  |  | 5.6 nM | 5080 nM | 
CCOc1ccc(Cc2nc3cc(C(=O)N(CC(F)(F)F)CC(F)(F)F)ccc3n2CC2CCCCC2)cc1 [Compound 3] | 0.8 nM |  |  | 84.8 nM | 
CCOc1ccc(Cc2nc3cc(C(=O)N(CC(F)(F)F)CC(F)(F)F)ccc3n2Cc2ccco2)cc1 [Compound 4] |  | 4690 nM |  |  | 
CCOc1ccc(Cc2nc3cc(C(=O)N(CC(F)(F)F)CC(F)(F)F)ccc3n2Cc2ccco2)cc1 [Compound 7] |  | 5530 nM |  |  | 
CCOc1ccc(Cc2nc3cc(C(=O)N(CC(F)(F)F)CC(F)(F)F)ccc3n2Cc2ccncc2)cc1 [Compound 8] | 16.7 nM | 5350 nM |  |  | 
CCOc1ccc(C(C)c2nc3cc(C(=O)N(CC(F)(F)F)CC(F)(F)F)ccc3n2Cc2ccncc2)cc1 (centres unmarked) [Compound 9] |  | 5570 nM |  |  | 165 nM
CCOc1ccc(Cc2nc3cc(C(=O)N(CC(F)(F)F)CC(F)(F)F)ccc3n2CC2CCOCC2)cc1 [Compound 13] | 5.4 nM |  |  | 565 nM | 
CCOc1ccc(Cc2nc3cc(C(=O)N(CC(F)(F)F)CC(F)(F)F)ccc3n2C[C@H]2CCCO2)cc1 [Compound 14] | 14.8 nM |  |  | 5750 nM | 
CCOc1ccc(Cc2nc3cc(C(=O)N(CC(F)(F)F)CC(F)(F)F)ccc3n2C[C@@H]2CCCO2)cc1 [Compound 15] | 9.6 nM |  |  | 5750 nM | 
CCOc1ccc(Cc2nc3cc(C(=O)N(CC(F)(F)F)CC(F)(F)F)ccc3n2CC2CCCCO2)cc1 (centres unmarked) [Compound 16] | 3.3 nM | 1410 nM |  |  | 
CCOc1ccc(Cc2nc3cc(C(=O)N(CC(F)(F)F)CC(F)(F)F)ccc3n2CC2CCOCC2)nc1 [Compound 20] | 11.2 nM |  |  | 2730 nM | 
CCOc1ccc(Cc2nc3cc(C(=O)N(CC(F)(F)F)CC(F)(F)F)ccc3n2CCC(C)C)nc1 [Compound 21] | 15.4 nM |  |  | 5430 nM | 
CCOc1ccc(Cc2nc3cc(C(=O)N(CC(F)(F)F)CC(F)(F)F)ccc3n2CC2CCC2)cc1 [Compound 25] | 2 nM |  |  | 1560 nM | 
CCOc1ccc(Cc2nc3cc(C(=O)N(CC(F)(F)F)CC(F)(F)F)ccc3n2CC2CCC2)nc1 [Compound 26] | 6.6 nM |  |  | 5530 nM | 
CCOc1ccc(Cc2nc3cc(C(=O)N(CC(F)(F)F)CC(F)(F)F)ccc3n2CC2CCCC2)nc1 [Compound 27] | 3.2 nM |  |  | 1360 nM | 
CCOc1ccc(Cc2nc3cc(C(=O)N(CC(F)(F)F)CC(F)(F)F)ccc3n2Cc2ccoc2)nc1 [Compound 29] | 68.7 nM | 5810 nM |  |  | 
CCOc1ccc(Cc2nc3cc(C(=O)N(CC(F)(F)F)CC(F)(F)F)ccc3n2CC2CCCCC2)nc1 [Compound 30] | 3.1 nM |  |  | 455 nM | 
CC(C)Oc1ccc(Cc2nc3cc(C(=O)N(CC(F)(F)F)CC(F)(F)F)ccc3n2CC2CCCCC2)nc1 [Compound 32] | 2.7 nM | 142 nM |  |  | 
CCOc1ccc(Cc2nc3cc(C(=O)N(CC(F)(F)F)CC(F)(F)F)ccc3n2Cc2ccsc2)nc1 [Compound 36] | 14 nM | 5750 nM |  |  | 
